These results are taken from ChEMBL document CHEMBL3046073, “Synthesis and cytotoxicity of novel 6H-indolo[2,3-b]quinoxaline derivatives” (2013).

Type in all cases: functional
For one test, the system named is A549. The test is described as follows: Cytotoxicity against Homo sapiens (human) A549 cells assessed as cell viability at 10 uM after 72 hr by MTT assay. The note with it: A549, 72 h, read-out: Activity.
For a further test, the system named is HeLa. Briefly: Cytotoxicity against Homo sapiens (human) HeLa cells assessed as cell viability at 10 uM after 72 hr by MTT assay. Particulars: read-out: Activity. For orientation: Formazan colour is commonly taken as a measure of viable cells.
The subject of another test is DU-145. The test is described as follows: Cytotoxicity against Homo sapiens (human) DU145 cells assessed as cell viability at 10 uM after 72 hr by MTT assay. The note with it: DU-145, 72 h, read-out: Activity.

For the compound `Fc1ccc(-n2cc(Cn3c4ccccc4c4nc5ccccc5nc43)nn2)c(F)c1`, the viability at 10 µM with A549 stood at 94.7%; in the test with HeLa, 80.7%; in the test on DU-145, 77.4%.

As for `Fc1ccc(-n2cc(Cn3c4ccccc4c4nc5ccccc5nc43)nn2)cc1`, the viability at 10 µM with A549 is 94.7%; with HeLa it was 77.4%; in the test with DU-145, 83.2%.

As to `Fc1ccc2c(c1)c1nc3ccccc3nc1n2Cc1cn(-c2ccccc2Br)nn1`, the figures for the viability at 10 µM in the test with A549, with HeLa and in the test with DU-145 were 94.7%, 89.4% and 90.1%, respectively.

In the case of `Clc1cccc(-n2cc(Cn3c4ccccc4c4nc5ccccc5nc43)nn2)c1`, the results for the viability at 10 µM with A549, with HeLa and in the test on DU-145 were 104%, 77.5% and 77.5%, respectively.

For the compound `Fc1ccc2c(c1)c1nc3ccccc3nc1n2Cc1cn(-c2ccccc2)nn1`, the viability at 10 µM in the test with A549 stood at 97.8%; in the test with HeLa, 92%; with DU-145, 72.6%.

On to `Fc1ccc2c(c1)c1nc3ccccc3nc1n2Cc1cn(-c2cccc(C(F)(F)F)c2)nn1`, for which the viability at 10 µM turned out to be 93.7% with A549, 86.4% in the test with HeLa and 77.5% in the test on DU-145.

Consider `Fc1ccc2c(c1)c1nc3ccccc3nc1n2Cc1cn(-c2cccc(Cl)c2)nn1`, for which the viability at 10 µM with A549 amounted to 91.9%; in the test on HeLa, 77.7%; in the test with DU-145 it was 73.2%.

In the case of `COc1cccc2c1C(=O)c1c(O)c3c(c(O)c1C2=O)C[C@@](O)(C(=O)CO)C[C@@H]3O[C@H]1C[C@H](N)[C@H](O)[C@H](C)O1` [DOXORUBICIN], the viability at 10 µM in the test on A549 was 6.33%; with HeLa, 12%; with DU-145, 9%.

With `Fc1ccc(-n2cc(Cn3c4ccc(F)cc4c4nc5ccccc5nc43)nn2)c(F)c1`, the viability at 10 µM is 87.9% in the test on A549, 86.8% in the test on HeLa and 77.3% in the test with DU-145.

In the case of `Fc1ccc(COc2cccc(-n3cc(Cn4c5ccccc5c5nc6ccccc6nc54)nn3)c2)cc1`, the results for the viability at 10 µM in the test on A549, in the test on HeLa and with DU-145 were 98.3%, 81.5% and 77.6%, respectively.

For the compound `Fc1cc(-n2cc(Cn3c4ccccc4c4nc5ccccc5nc43)nn2)ccc1Cl`, the viability at 10 µM in the test with A549 is 83.5%; with HeLa it was 93.6%; in the test with DU-145, 76.1%.

On to `FC(F)(F)c1cccc(-n2cc(Cn3c4ccccc4c4nc5ccccc5nc43)nn2)c1`, for which the figures for the viability at 10 µM with A549, in the test on HeLa and in the test on DU-145 were 83.4%, 76.9% and 76.5%, respectively.

In the case of `Brc1ccccc1-n1cc(Cn2c3ccccc3c3nc4ccccc4nc32)nn1`, the viability at 10 µM with A549 is 85.5%; in the test on HeLa, 75.6%; in the test with DU-145, 85.4%.

With `Fc1ccc(-n2cc(Cn3c4ccc(F)cc4c4nc5ccccc5nc43)nn2)cc1`, the viability at 10 µM with A549 stood at 97.1%; with HeLa, 91.9%; with DU-145 it was 85%.
